Data taken from PMC12264554, “Application of preclinical absorption, distribution, metabolism, elimination in vitro techniques for the characterization and compound library optimization of novel antibiotic gallium salophen” (Drug Metabolism and Disposition, 2025).

Key:
[1] = calculated B/P; ref (Cao et al., 2023); cited from earlier work
[2] = target: HasA (Pseudomonas aeruginosa, UniProt G3XD33); assay: Kd determination by fluorescence quenching of apo-HasAp; conditions: read-out: HasA Kd; apo-HasAp 1 μM, 20 mM sodium phosphate pH 7.4, 25 °C, one-site binding fit
Protocol: Wild-type, full-length HasAp was prepared from freshly transformed Escherichia coli BL21(DE3) competent cells as previously described in 4 L of M9 media. Cell pellets were resuspended and lysed with an LM-20 microfluidizer at 18,000 psi. Lysate was clarified by centrifugation and applied to a Q-Sepharose column. HasAp was eluted over a gradient from 20 to 600 mM NaCl in 20 mM Tris-HCl (pH 7.5), and desired fractions determined by SDS-PAGE were pooled. Apo-HasAp was further purified on a Butyl Sepharose Fast Flow column equilibrated with 50 mM sodium phosphate buffer with 0.7 M ammonium sulfate (pH 7.0). Holo-HasAp and other proteins eluted within 2–3 bed volumes of 50 mM sodium phosphate containing 0.5 M ammonium sulfate. Apo-HasAp was then eluted with a linear gradient of sodium phosphate buffer (50–20 mM) containing ammonium sulfate (0.5–0 M). Fractions were analyzed again by SDS-PAGE, and the apo-HasAp was pooled, concentrated (Amicon stirred cell with Ultracel 10 kDa filter), and exchanged into 20 mM sodium phosphate buffer.
Binding affinities were determined using a BioTek Synergy H1 microplate reader in a black 96-well plate. Compounds were solvated in H2O in serial dilutions (100–0.39 μM). One micromolar solution of apo-HasAp 20 mM sodium phosphate buffer (pH 7.4, 25 °C) was titrated into the ligand of interest. Emission spectra were recorded (300–500 nm) after excitation at 280 nm. The decrease in maximum emission was plotted against the ligand concentration (accounting for dilution) and fit to one-site binding using GraphPad Prism v10.

[3] = RBC/PL partitioning equilibrium in whole blood; conditions: for K2EDTA KRBC/PL: pooled K2EDTA whole blood; for K2EDTA KRBC/PL / Heparin KRBC/PL: LC-MS/MS (ICP-MS for Ga^3+); for Heparin KRBC/PL: pooled sodium heparin whole blood
Protocol: The mixtures were digested at 80 °C for 4 hours and further diluted to a concentration of 6% nitric acid. Gallium (Ga^71) in whole blood, PL, and RBC samples were quantified using an Agilent 7700x ICP-MS instrument (Agilent Technologies). Metal levels were detected using an Octopole Reaction System in He mode. Other ICP-MS parameters include an radio frequency power of 1500 W, on octupole radio frequency of 190 V, an octapole bias of –18 V, a helium gas flow of 4.3 mL/min, and an argon flow of 0.99 L/min. Samples were loaded through a 7700X peristaltic (with a speed of 0.1 rps) and a MicroMist nebulizer. A standard calibration curve was used to derive metal concentrations. The calibration standards from 0–250 ppb were prepared in 6% nitric acid using atomic absorption standards (Sigma). Data analysis and extraction were performed using Agilent’s MassHunter software version 5.1, specifically version D.01.01.
All LC-MS/MS grade solvents were purchased from ThermoFisher. Ammonium bicarbonate was purchased from Sigma Aldrich. Analysis was performed on a Waters I-Class ultra-performance liquid chromatography system connected with a Waters Xevo TQ-XS mass spectrometer. Ten millimolar ammonium bicarbonate, pH 9.4 was used for mobile phase A, and 100% methanol was used for mobile phase B. The column flow rate was set at 0.400 mL/min. Chromatographic separation was performed with a BEH C18 (2.1 × 50 mm, 1.7 μm) column (Waters). […] The total run time was 4 minutes. The column temperature was set to 60 °C, and the autosampler temperature was set to 15 °C. Washing parameters were 800 μL of weak needle wash (acetonitrile [ACN]:Water/50:50) and 1000 μL of strong needle wash (methanol:ACN:2-propanol:formic acid/30:30:40:0.5) after every injection. Transitions used to monitor all drugs in the study are shown in Supplemental Table 1.
Whole blood (either potassium EDTA [K2EDTA] or sodium heparin) was preincubated at 37 °C for 30 minutes before spiking with the analyte. GaSal-5 was made at a stock concentration of 100 μg/mL in water and then spiked at a high concentration (1 μg/mL) and low concentration (100 ng/mL) to determine whether equilibrium was concentration dependent. Samples were then aliquoted and stored in a water bath at 37 °C for 1, 2, 3, 4, and 8 hours or harvested immediately. PL was harvested from samples by centrifuging at 3000 rpm at 4 °C for 10 minutes. PL was transferred to a new tube and considered the PL fraction, whereas the rest of the matrix was considered the RBC fraction. Samples were then either analyzed by LC-MS/MS or ICP-MS. […] For selectivity lot analysis, whole blood from 3 male and 3 female donors were incubated for 2 hours and then analyzed with LC-MS/MS and ICP-MS at a single concentration of 1 μg/mL. Data are presented as average ± SEM, n = 3 per sample, per concentration. Significance was determined by using a paired t test for ICP-MS and LC-MS/MS data (the same sample, different method) or a 2-tailed Student’s t test for different anticoagulants.

[4] = Caco-2 permeability screening; assay type: in vitro ADME; conditions: for Papp A→B / Papp B→A / efflux ratio at 20 µM: Caco-2, 20 μM; for Papp A→B / Papp B→A: 30 and 60 min, average ± SEM; for Papp A→B: read-out: Papp apical to basolateral; for Papp B→A: read-out: Papp basolateral to apical; for Papp: Caco-2, ranked by Papp against control drugs, read-out: Permeability ranking; for efflux ratio at 20 µM: read-out: Efflux ratio B to A/A to B
Protocol: Caco-2 cells were received from American Type Culture Collection and certified mycoplasma free. Cells were seeded on transwell plates (CoStar, growth area 0.33 cm^2/well, polycarbonate membrane, 0.33 μm pore size) between passage 20 and 27 and then analyzed between 21 and 25 days after wells were seeded to ensure enterocyte-like differentiation. Before assessing permeability, cells were washed once with Hank’s Balanced Salt Solution buffer, pH 7.4, and then incubated at 37 °C for 30 minutes. Transepithelial electrical resistance (TEER) was measured after equilibration before the experiment using an epithelial volt-ohmmeter (EVOM, World Precision Instruments), and cells were used if TEER > 250 Ω × cm^2. Cells were dosed to measure permeability from basolateral and apical sides at a concentration of 20 μM of test compound and 50 μM of Lucifer yellow. Lucifer yellow was used as a “zero permeability” marker to monitor the integrity of cell barrier. Samples were taken at 0 and 60 minutes from the donor side, and samples were taken at 30 and 60 minutes from the receiver side; media was replenished after the 30-minute sample was taken from both chambers. A calibration curve was prepared by serial dilution using the dosing solution in a 1:5 dilution. […] Samples were prepared for LC-MS/MS analysis by taking 100 μL of sample, adding 1 μM internal standard (GaSal-4 or GaSal-5), and crashing with 400 μL of methanol. Samples were centrifuged at 3000 rpm at 4 °C for 30 minutes, 200 μL of supernatant was transferred to a new plate, and 100 μL of water was added to each sample. Samples were vortexed and analyzed by LC-MS/MS as described earlier. […] To preliminarily evaluate organic cation transporter 1 (OCT1) or P-glycoprotein (P-gp)-dependent transport, transport studies were conducted with and without a 1 μM “inhibitor cocktail” alongside GaSal. […] The Papp for basolateral to apical, Papp apical to basolateral, and efflux ratio were reported for each compound. In order to calculate Papp, the concentration in the sampled time point was determined from the calibration curve and then converted to μg based on the volume of the chamber (0.2 mL for apical, 1.0 mL for basolateral). […] The calculation of Papp was determined using eq. […] Data are presented as the average ± SEM for each compound analyzed as n = 3 on 2 different days with 2 different cell line passages, for n = 6 total. GaSal is n = 3 on 3 different cell line passages since this was used as a test compound for the inhibition cocktail experiments.

[5] = Experimental LogP by reverse-phase HPLC method; assay type: physicochemical; conditions: extrapolated log kw
Text: LogP was experimentally determined using previously published reverse-phase high-performance liquid chromatography method, and this workflow was adapted using instrumentation described in the previous LC-MS/MS analysis section ([Coutinho et al, 2023]). Briefly, analogs were eluted using isocratic flow with an increasing percentage of organic solvent from 55% to 90% in increments of 5%. The change in the log of the retention factor, log k, was plotted against the fraction of organic solvent. This allowed for extrapolation to the y-intercept, which is when the fraction of organic in the system is zero, or log kw. The same workflow was applied to known compounds with a published logP value to establish a relationship between logP and log kw. This ratio was used to calculate the experimental logP from the log kw of the test compounds. The in silico prediction of logP values was obtained using an online calculator by Molinspiration Cheminformatics (molinspiration.com).

Sequence of HasA (G3XD33 entry or part of it): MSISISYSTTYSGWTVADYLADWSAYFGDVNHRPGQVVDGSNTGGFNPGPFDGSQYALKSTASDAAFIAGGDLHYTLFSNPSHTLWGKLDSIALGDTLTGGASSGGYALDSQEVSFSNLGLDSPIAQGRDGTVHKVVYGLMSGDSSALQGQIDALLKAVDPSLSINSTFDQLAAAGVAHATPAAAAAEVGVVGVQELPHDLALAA

SMILES: [Sr+2] [Strontium]
- KRBC/PL (B/P ratio) [1]: 0.42

SMILES: C/C(=N\c1ccccc1/N=C/c1ccc(OCC[N+](C)(C)C)cc1O)c1ccccc1O.[Ga+3] [GaSal-6]
- Kd [2]: 4000 ± 2800 nM

SMILES: [Ni] [Nickel]
- KRBC/PL (B/P ratio) [1]: 0.50

SMILES: [Pb] [Lead]
- KRBC/PL (B/P ratio) [1]: 1.13

SMILES: CC(=Nc1ccccc1N=Cc1ccc(OCCC(=O)O)cc1O)c1ccccc1O.[Ga+3] [GaSal-9]
- Kd [2]: 330 ± 40 nM
- K2EDTA KRBC/PL ([3]; 0.1 μg/mL, 2 hours): 820 ± 59
- K2EDTA KRBC/PL ([3]; 1 μg/mL, 2 hours): 13745 ± 3800
- Papp A→B [4]: < 0.01 ×10⁻⁶ cm/s
- Papp B→A [4]: 22.5 ± 5.63 ×10⁻⁶ cm/s
- Papp [4]: < 1.12 ×10⁻⁶ cm/s
- efflux ratio at 20 µM ([4]; human): > 22.5
- logP [5]: 3.03

SMILES: [Se] [Selenium]
- KRBC/PL (B/P ratio) [1]: 1.34

SMILES: OCCCOc1ccc(/C=N/c2ccccc2/N=C/c2ccc(OCCCO)cc2O)c(O)c1.[Ga+3] [GaSal-11]
- Kd [2]: 570 ± 30 nM
- K2EDTA KRBC/PL ([3]; 0.1 μg/mL, 2 hours): 0.05 ± 0.03
- Heparin KRBC/PL ([3]; 0.1 μg/mL, 2 hours): 0.91 ± 0.19
- K2EDTA KRBC/PL ([3]; 1 μg/mL, 2 hours): 0.05 ± 0.02
- Heparin KRBC/PL ([3]; 1 μg/mL, 2 hours): 1.15 ± 0.19
- Papp A→B [4]: < 0.01 ×10⁻⁶ cm/s
- Papp B→A [4]: 0.72 ± 0.12 ×10⁻⁶ cm/s
- Papp [4]: < 1.12 ×10⁻⁶ cm/s
- logP [5]: 4.04

SMILES: COCCOCCOc1ccc(/C=N/c2ccccc2N=C(C)c2ccccc2O)c(O)c1.[Ga+3] [GaSal-10]
- Kd [2]: 3400 ± 300 nM

SMILES: CN(C)C(=O)C(CCN1CCC(O)(c2ccc(Cl)cc2)CC1)(c1ccccc1)c1ccccc1 [Loperamide, reference compound]
- efflux ratio at 60 min, 20 μM ([4]; human, Caco-2, pH 7.4, known drug standards, read-out: Efflux Ratio B to A/ A to B): 4.22
- Papp A→B at 60 min, 20 μM ([4]; human, Caco-2, pH 7.4, known drug standards, read-out: Papp Apical to Basolateral): 3.51 ± 0.04 ×10⁻⁶ cm/s
- Papp B→A at 60 min, 20 μM ([4]; human, Caco-2, pH 7.4, known drug standards, read-out: Papp Basolateral to Apical): 14.8 ± 2.12 ×10⁻⁶ cm/s
- Papp at 60 min, 20 μM ([4]; human, Caco-2, pH 7.4, known drug standards, read-out: Permeability Ranking): 3.51 to 5.33 ×10⁻⁶ cm/s

SMILES: CC(=Nc1ccccc1/N=C/c1ccc(OCCCO)cc1O)c1ccccc1O.[Ga+3] [GaSal-12]
- Kd [2]: 520 ± 10 nM
- K2EDTA KRBC/PL ([3]; 0.1 μg/mL, 2 hours): 0.11 ± 0.06
- Heparin KRBC/PL ([3]; 0.1 μg/mL, 2 hours): 0.86 ± 0.31
- K2EDTA KRBC/PL ([3]; 1 μg/mL, 2 hours): 0.13 ± 0.04
- Heparin KRBC/PL ([3]; 1 μg/mL, 2 hours): 1.48 ± 0.10
- Papp A→B [4]: 0.05 ± 0.01 ×10⁻⁶ cm/s
- Papp B→A [4]: 0.17 ± 0.06 ×10⁻⁶ cm/s
- Papp [4]: < 1.12 ×10⁻⁶ cm/s
- efflux ratio at 20 µM ([4]; human): 3.4
- logP [5]: 3.19

SMILES: [Cd] [Cadmium]
- KRBC/PL (B/P ratio) [1]: 4.28

SMILES: CCCCOc1ccc(/C=N/c2ccccc2/N=C/c2ccc(OCCCC)cc2O)c(O)c1.[Ga+3] [GaSal-15]
- Kd [2]: 1980 ± 170 nM
- K2EDTA KRBC/PL ([3]; 0.1 μg/mL, 2 hours): 5.40 ± 0.13
- Heparin KRBC/PL ([3]; 0.1 μg/mL, 2 hours): 0.83 ± 0.01
- K2EDTA KRBC/PL ([3]; 1 μg/mL, 2 hours): 3.81 ± 0.97
- Heparin KRBC/PL ([3]; 1 μg/mL, 2 hours): 1.24 ± 0.03
- Papp A→B [4]: 0.79 ± 0.06 ×10⁻⁶ cm/s
- Papp B→A [4]: 7.1 ± 1.13 ×10⁻⁶ cm/s
- Papp [4]: < 1.12 ×10⁻⁶ cm/s
- efflux ratio at 20 µM ([4]; human): 9.02
- logP [5]: 5.99

SMILES: C[N+](C)(C)CCOc1ccc(/C=N/c2ccccc2/N=C/c2ccc(OCC[N+](C)(C)C)cc2O)c(O)c1.[Ga+3] [GaSal-1]
- Kd [2]: 2500 ± 1200 nM

SMILES: CC(=Nc1ccccc1N=Cc1ccc(OCCN2CCOCC2)cc1O)c1ccccc1O.[Ga+3] [GaSal-8]
- Kd [2]: 5200 ± 400 nM
- K2EDTA KRBC/PL ([3]; 0.1 μg/mL, 2 hours): 0.12 ± 0.09
- Heparin KRBC/PL ([3]; 0.1 μg/mL, 2 hours): 33.8 ± 5.7
- K2EDTA KRBC/PL ([3]; 1 μg/mL, 2 hours): 0.10 ± 0.05
- Heparin KRBC/PL ([3]; 1 μg/mL, 2 hours): 37.4 ± 2.6
- Papp A→B [4]: < 0.01 ×10⁻⁶ cm/s
- Papp B→A [4]: 5.75 ± 0.37 ×10⁻⁶ cm/s
- Papp [4]: < 1.12 ×10⁻⁶ cm/s
- efflux ratio at 20 µM ([4]; human): > 5.75
- logP [5]: 4.11

SMILES: O=[N+]([O-])[O-].O=[N+]([O-])[O-].O=[N+]([O-])[O-].[Ga+3] [Ga^3+, gallium nitrate, reference compound]
- hemolysis [3]: > 5%
- ICP-MS calculated KRBC/PL ([3]; 1 μg/mL, sodium heparin whole blood, 6 selectivity lots, 2 hours): 0.08 ± 0.01
